Data taken from BindingDB's records for doi:10.1016/j.bioorg.2016.12.011 (University of Karachi, 2017).

Target: T1, Beta-glucuronidase (Bos taurus, UniProt A3KMY8)
T1 sequence (A3KMY8 whole entry): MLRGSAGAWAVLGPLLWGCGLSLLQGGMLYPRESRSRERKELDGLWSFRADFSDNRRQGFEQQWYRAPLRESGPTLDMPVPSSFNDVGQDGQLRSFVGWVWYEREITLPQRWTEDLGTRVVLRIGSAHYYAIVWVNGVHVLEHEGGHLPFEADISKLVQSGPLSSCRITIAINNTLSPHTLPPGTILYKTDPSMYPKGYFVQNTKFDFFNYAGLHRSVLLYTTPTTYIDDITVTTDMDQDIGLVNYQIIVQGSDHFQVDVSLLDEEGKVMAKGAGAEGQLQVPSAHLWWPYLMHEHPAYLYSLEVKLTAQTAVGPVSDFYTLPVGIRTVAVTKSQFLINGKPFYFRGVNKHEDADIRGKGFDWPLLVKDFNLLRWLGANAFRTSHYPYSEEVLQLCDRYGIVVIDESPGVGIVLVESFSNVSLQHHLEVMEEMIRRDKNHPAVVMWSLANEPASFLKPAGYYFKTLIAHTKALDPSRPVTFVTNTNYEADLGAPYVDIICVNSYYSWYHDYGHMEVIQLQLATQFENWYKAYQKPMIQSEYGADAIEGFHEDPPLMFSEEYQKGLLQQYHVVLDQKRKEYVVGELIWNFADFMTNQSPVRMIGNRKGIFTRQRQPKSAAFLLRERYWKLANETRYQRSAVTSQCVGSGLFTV
Test: β-Glucuronidase Inhibition Assay
Method: Total volume of reaction was 250 μL. […] Reaction mixture comprised of 0.1 M acetate buffer (185 μL), test compound solution in DMSO (5 μL), enzyme solution (10 μL), was incubated for 30 min at 37 °C. […] All assays were run in triplicate.

Compound | IC50 [µM]
Cc1ccc(-c2csc(N/N=C/c3ccc4ccc5cccc6ccc3c4c56)n2)cc1 [(E)-2-(2-(Pyren-1-ylmethylene)hydrazinyl)-4-(p-tolyl)thiazole (4)] | 40.1
NC(=S)N/N=C/c1ccc2ccc3cccc4ccc1c2c34 [(E)-2-(Pyren-1-ylmethylene)hydrazine-1-carbothioamide (2)] | 5.5
Clc1ccc(-c2csc(C/C=C/c3ccc4ccc5cccc6ccc3c4c56)n2)cc1 [(E)-4-(4-Chlorophenyl)-2-(3-(pyren-1-yl)allyl)thiazole (10)] | 11.1
COc1ccc(-c2csc(N/N=C/c3ccc4ccc5cccc6ccc3c4c56)n2)cc1 [(E)-4-(4-Methoxyphenyl)-2-(2-(pyren-1-ylmethylene)hydrazinyl)thiazole (3)] | 24.4
C(=N\Nc1nc(-c2ccc(-c3ccccc3)cc2)cs1)/c1ccc2ccc3cccc4ccc1c2c34 [(E)-4-([1,10-Biphenyl]-4-yl)-2-(2-(pyren-1-ylmethylene)hydrazinyl)thiazole (5)] | 36.1
